Results taken from PubChem BioAssay AID2060887 (Molecular Pharmacology Branch, DTP, NCI, 2025).
Several values for one entry are separate records, joined by “and”; a condition that tells them apart may be missing. Identical values can stand only once.

System: 782815-120-R-J1-PDC complex spheroid viability
Assay: Anticancer human tumor 782815-120-R-J1-PDC patient-derived colon adenocarcinoma cell line growth inhibition [RAS]
Conditions: for viability, T/C: stronger effect = lower value
Text: RAS pathway inhibitors in Combinations in Complex Spheroids
A high-throughput screen of multi-cell type tumor spheroids was designed to identify active combinations of RAS pathway inhibitors and targeted small molecules. Complex spheroids include a stromal component modeled by human endothelial cells (HUVEC) and fibroblasts modeled by human mesenchymal stem cells (MSCs). The concentration ranges selected for each drug and investigational agent were based upon clinically achievable concentrations if the clinical Cmax of the agent was known.
Compounds. The drugs and investigational agents: abemaciclib (NSC768073), cobimetinib (NSC768068), divarasib (GDC6063, NSC841802), docetaxel (NSC628503), GDC-1971 (RLY-1971, NSC841576), gemcitabine (NSC613327), inavolisib (NSC800729), ipatasertib (NSC767898), KB-0742 (NSC834161), MRTX-1133 (NSC836407), osimertinib (NSC779217), RMC-4630 (NSC839698), RMC-6236 (NSC851965), RMC-6291 (NSC852671), Ro-3306 (NSC812927), sapanisertib (NSC764658), SN-38 (NSC673596), staurosporine (NSC755774), SY5609 (NSC837396), and tovorafenib (DAY101, NSC766906), were obtained from the National Cancer Institute (NCI) Developmental Therapeutics Program Chemical Repository. The FDA-approved anticancer drug set is available from the NCI Developmental Therapeutics Program. […] The stock solutions were prepared in dimethyl sulfoxide (DMSO, Sigma-Aldrich, St. Louis, MO, cat. D2650) at 800-fold the tested concentration and stored at -70 degrees C prior to their use. All drugs and investigational agents were tested over a range starting from a high concentration at or near the clinical Cmax and decreasing in half-log increments. If the clinical Cmax for an agent had not been determined, the highest concentration tested was 10 microM.
Cell Culture. All cells were maintained in an incubator at 37 degrees C and 5% CO2 with 95% humidity. The PDC lines were cultured according to standard operating procedures established by the NCI PDMR. All PDCs were thawed and cultured in Matrigel-coated flasks prepared with a working solution of 1X Ham's F-12 nutrient mix, without supplementation (Invitrogen, Waltham, MA, cat. 11765054), 100 U/mL penicillin-streptomycin (Invitrogen, cat. 15140122), and 2.5% Matrigel (Corning Inc., Corning, NY, cat. 354248) for the first three passages. The 362531-283-R-J2-PDC and 782815-120-R-J1-PDC lines were cultured in 6C/Colon 1B media, which includes advanced DMEM/F-12 (Thermo Fisher Scientific, cat. 12634028), 10 mM HEPES (Thermo Fisher Scientific, cat. 15630080), 1X GlutaMAX supplement (Thermo Fisher Scientific, cat. 35050061), 0.1 mg/mL primocin (InvivoGen, San Diego, CA, cat. ant-pm-2), 10% defined fetal bovine serum, heat inactivated (HyClone Laboratories Inc., Logan, UT, cat. SH30070.03HI), 50% L-WRN conditioned media (ATCC, cat. CRL-3276), 1.25 mM N-Acetyl-L-cysteine (Sigma-Aldrich, cat. A9165), 10 mM nicotinamide (Sigma-Aldrich, cat. N0636), 1X B-27 supplement (Thermo Fisher Scientific, cat. 17504044), 1X N-2 supplement (Thermo Fisher Scientific, cat. 17502048), 50 ng/mL human EGF (Thermo Fisher Scientific, cat. PHG0311), and 10 microM Y-27632 dihydrochloride (Tocris Bioscience, cat. 1254). The K12877-001-R-J1-PDC line was cultured in 6I media, which includes all 6C/Colon 1B media plus 10 ng/mL human FGF-10 (PeproTech, cat. 100-26), 1 ng/mL human FGF-2 (PeproTech, cat. 100-18B), 1 µM prostaglandin E2 (Tocris Bioscience, cat. 2296), […] hydrocortisone (Sigma-Aldrich, cat. H4001), and […] bovine insulin (Sigma-Aldrich, cat. I6634). The K86415-001-R-J1-PDC line was cultured in 6D media, which includes all 6C/Colon 1B media components minus the L-WRN conditioned media. The 485176-168-R4-J1-PDC was cultured in PANC media, which includes all 6C/Colon 1B media plus 100 ng/mL human FGF-10 (PeproTech, cat. 100-26), 500 nM SB-431542 (Selleckchem, cat. S1067), and 10 nM gastrin (Tocris Bioscience, cat. 3006). […]

[1] = compound alone, run of 07/15/2024
[2] = compound alone, run of 07/09/2024
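Further: spheroids exposed to compounds for 7 days before reading.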
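Wherever viability, T/C is given: 100% = DMSO vehicle control viability.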

SMILES | viability, T/C (compound 0.0316 µM) | viability, T/C (compound 0.1 µM) | viability, T/C (compound 0.316 µM) | viability, T/C (compound 1 µM) | viability, T/C (compound 3.16 µM) | viability, T/C (compound 10 µM) | IC50 [1] [nM] | viability, T/C (compound 0.00316 µM) | viability, T/C (compound 0.01 µM) | IC50 (curve of compound) | viability, T/C (compound 0.000316 µM) | viability, T/C (compound 0.001 µM) | viability, T/C (compound 0.000949 µM) | viability, T/C (compound 0.003 µM) | viability, T/C (compound 0.03 µM) | viability, T/C (compound 0.0949 µM) | viability, T/C (compound 0.3 µM) | viability, T/C (compound 0.00949 µM) | IC50 [2]
C#Cc1c(F)ccc2cc(O)cc(-c3ncc4c(N5CC6CCC(C5)N6)nc(OCC56CCCN5CC(F)C6)nc4c3F)c12 (stereo not given) | 104% [middle of 8 runs] | 103% [middle of 8 runs] | 103% [middle of 8 runs] | 97.9% [middle of 8 runs] | 101% [middle of 8 runs] | 95% [middle of 8 runs] | > 10000 | – | – | – | – | – | – | – | – | – | – | – | –
C=CC(=O)N1CCN(c2nc(OCC3CCCN3C)nc3c(F)c(-c4nc(N)cc(C)c4C(F)(F)F)c(Cl)cc23)C(C)C1 (stereo not given) | 102% [middle of 12 runs] | 99.2% [middle of 12 runs] | 102% [middle of 12 runs] | 96.7% [middle of 12 runs] | – | – | > 1000 | 99.4% [middle of 12 runs] | 102% [middle of 12 runs] | > 1000 nM | – | – | – | – | – | – | – | – | –
C=CC(=O)Nc1cc(Nc2nccc(-c3cn(C)c4ccccc34)n2)c(OC)cc1N(C)CCN(C)C | 96.3% [middle of 4 runs] | 94.3% [middle of 4 runs] | 94.1% [middle of 4 runs] | 91.1% [middle of 4 runs] | – | – | – | 93.8% and 93.6% (2×) and 98% | 99.9% [middle of 4 runs] | > 1000 nM | – | – | – | – | – | – | – | – | –
CC(C)NCC(C(=O)N1CCN(c2ncnc3c2C(C)CC3O)CC1)c1ccc(Cl)cc1 (stereo not given) | 106% [middle of 4 runs] | 98.9% [middle of 4 runs] | 104% (2×) and 101% and 91.7% | 96% [middle of 4 runs] | 101% [middle of 4 runs] | 104% [middle of 4 runs] | – | – | – | > 10000 nM | – | – | – | – | – | – | – | – | –
CC(C)n1nc(-c2ccc3oc(N)nc3c2)c2c(N)ncnc21 | 95.5% [middle of 4 runs] | 83.7% [middle of 4 runs] | – | – | – | – | – | 93.8% [middle of 4 runs] | 90.3% [middle of 4 runs] | > 100 nM | 98.8% [middle of 4 runs] | 97.7% [middle of 4 runs] | – | – | – | – | – | – | –
CC(Nc1ccc2c(c1)OCCn1cc(N3C(=O)OCC3C(F)F)nc1-2)C(N)=O (stereo not given) | 102% (2×) and 103% and 93.2% | 97.5% [middle of 4 runs] | 90.9% [middle of 4 runs] | 87.2% [middle of 4 runs] | 100% [middle of 4 runs] | 93% [middle of 4 runs] | – | – | – | > 10000 nM | – | – | – | – | – | – | – | – | –
CC1(C)CCC(Nc2ncc(C(F)(F)F)c(-c3c[nH]c4c(P(C)(C)=O)c(C#N)ccc34)n2)CN1 (stereo not given) | – | – | – | – | – | – | – | – | – | > 300 nM and 76.6 nM and 223 nM | – | – | 107% [middle of 4 runs] | 85% [middle of 4 runs] | 65.3% [middle of 4 runs] | 59.4% [middle of 4 runs] | 57.8% [middle of 4 runs] | – | –
CC1(O)CCCC1n1c(=O)c(C(F)F)cc2cnc(NC3CCN(S(C)(=O)=O)CC3)nc21 (stereo not given) | 70.6% [middle of 4 runs] | 66.3% [middle of 4 runs] | 64.3% [middle of 4 runs] | 70% [middle of 4 runs] | 63.5% [middle of 4 runs] | 27% [middle of 4 runs] | – | – | – | 4.69 µM [middle of 4 runs] | – | – | – | – | – | – | – | – | –
CCC(CC)c1cc(NC2CCC(N)C2)n2nccc2n1 (stereo not given) | 103% [middle of 4 runs] | 93.2% [middle of 4 runs] | 103% [middle of 4 runs] | 99.6% [middle of 4 runs] | 34.1% [middle of 4 runs] | 1.98% [middle of 4 runs] | – | – | – | 2.34 µM [middle of 4 runs] | – | – | – | – | – | – | – | – | –
CCN1CCN(Cc2ccc(Nc3ncc(F)c(-c4cc(F)c5nc(C)n(C(C)C)c5c4)n3)nc2)CC1 | 93.5% and 96.4% and 101% (2×) | 100% [middle of 4 runs] | 113% [middle of 4 runs] | 125% [middle of 4 runs] | – | – | – | 102% [middle of 4 runs] | 99.6% [middle of 4 runs] | > 1000 nM | – | – | – | – | – | – | – | – | –
CCc1c2c(nc3ccc(O)cc13)-c1cc3c(c(=O)n1C2)COC(=O)[C@]3(O)CC | – | – | – | – | – | – | – | – | – | 4.02 nM [middle of 4 runs] | – | – | 100% [middle of 4 runs] | 59.1% [middle of 4 runs] | 9.92% [middle of 4 runs] | 3.66% [middle of 4 runs] | 1.71% [middle of 4 runs] | 20.2% [middle of 4 runs] | –
CCn1c(-c2cc(N3CCN(C)CC3)cnc2C(C)OC)c2c3cc(ccc31)-c1csc(n1)CC(NC(=O)C1CC1C)C(=O)N1CCCC(N1)C(=O)OCC(C)(C)C2 (stereo not given) | – | – | – | – | – | – | – | – | – | – | – | – | 84.7% [middle of 8 runs] | 60.1% [middle of 8 runs] | 20.7% [middle of 8 runs] | 16.4% [middle of 8 runs] | 14.7% [middle of 7 runs] | 35.1% [middle of 8 runs] | 4.66 nM [middle of 8 runs]
CCn1c(-c2cccnc2C(C)OC)c2c3cc(ccc31)N1CCOC(CC(NC(=O)C(C(C)C)N(C)C(=O)C3(F)CCN(C(=O)C#CC(C)(C)N(C)C)CC3)C(=O)N3CCCC(N3)C(=O)OCC(C)(C)C2)C1 (stereo not given) | – | – | – | – | – | – | – | – | – | – | – | – | 95.4% [middle of 8 runs] | 100% [middle of 8 runs] | 98.5% [middle of 8 runs] | 96.5% [middle of 8 runs] | 89.1% [middle of 8 runs] | 95.8% [middle of 8 runs] | > 300 nM
C[C@@H](NC(=O)c1ncnc(N)c1Cl)c1ncc(C(=O)Nc2cc(C(F)(F)F)c(Cl)cn2)s1 | 105% [middle of 4 runs] | 99.3% [middle of 4 runs] | 98.1% [middle of 4 runs] | – | 83% [middle of 4 runs] | 62.2% [middle of 4 runs] | – | – | – | > 10000 nM | – | – | – | – | – | – | – | – | –
Nc1ccn(C2OC(CO)C(O)C2(F)F)c(=O)n1 (stereo not given) | – | 40.8% [middle of 4 runs] | 27% [middle of 4 runs] | 25.6% [middle of 4 runs] | – | – | – | 91.4% [middle of 4 runs] | 71.8% [middle of 4 runs] | 60.1 nM [middle of 4 runs] | – | – | – | – | – | – | – | – | –
O=C(c1ccc(F)c(F)c1Nc1ccc(I)cc1F)N1CC(O)([C@@H]2CCCCN2)C1 | 66.7% [middle of 4 runs] | 38.3% [middle of 4 runs] | 19.9% [middle of 4 runs] | 3.13% [middle of 4 runs] | – | – | – | 91.5% [middle of 4 runs] | 82.9% [middle of 4 runs] | 66 nM [middle of 4 runs] | – | – | – | – | – | – | – | – | –
